According to PubChem BioAssay AID1963827 (Molecular Pharmacology Branch, DTP, NCI, 2024):

Tested on: 994946-033-R-J1-PDC complex spheroid viability
Test: Anticancer human tumor 994946-033-R-J1-PDC patient-derived melanoma cell line growth inhibition [POLQ]
Conditions: for IC50: curve of first compound; for viability, T/C: stronger effect = lower value
Procedure: Multicellular complex tumor spheroid response to Polymerase (POL) inhibitors (novobiocin, ART-558, RP6685) in combination with a variety of drugs and investigational agents in selected tumor cell lines
The POL inhibitors (novobiocin, ART-558, and RP6685) were evaluated both individually and in combination with standard of care and investigational anticancer small molecules within a complex spheroid model of solid tumors. . Complex spheroids include a stromal component modeled by human endothelial cells (HUVEC) and fibroblasts modeled by human mesenchymal stem cells (MSCs). The concentration ranges selected for each drug and investigational agent were based upon clinically achievable concentrations if the clinical Cmax of the agent was known.
Compounds. The drugs and investigational agents: novobiocin (NSC847541), ART-558 (NSC835418), RP-6685 (NSC848927), peposertib (NSC802822), ceralasertib (NSC780249), elimusertib (NSC800525), camonsertib (NSC841442), AZD-1390 (NSC803789), olaparib (NSC753686), talazoparib (NSC767125), rucaparib (NSC756644), sotorasib (NSC818433), MRTX-1133 (NSC836407), SN-38 (NSC673596), topotecan (NSC609699), epotoside (NSC141540), doxorubicin (NSC123127), gemcitabine (NSC613327), 5-fluorouracil (NSC19893), paclitaxel (NSC125973), vemurafenib (NSC761431), MSA-2 (NSC828583), SN-011 (NSC837082), adavosertib (NSC754352), prexasertib (NSC758257), carboplatin (NSC241240) and oxaliplatin (NSC266046), were obtained from the National Cancer Institute (NCI) Developmental Therapeutics Program Chemical Repository (21). The FDA-approved anticancer drug set is available from the Developmental Therapeutics Program at https://dtp.cancer.gov/organization/dscb/obtaining/. […] The stock solutions were prepared in dimethyl sulfoxide (DMSO, Sigma-Aldrich, St. Louis, MO, cat. D2650), except for the platinum compounds which were prepared in saline (Quality Biological, Gaithersburg, MD, cat. 114-055-101), at 800-fold the tested concentration and stored at -70 degrees C prior to their use. All drugs and investigational agents were tested over a range starting from a high concentration at or near the clinical Cmax and decreasing in half-log increments. If the clinical Cmax for an agent had not been determined, the highest concentration tested was 10 microM, except for SN-38, which was tested at a high concentration of 1 microM.
Cell Culture. All cells were maintained in an incubator at 37 degrees C and 5% CO2 with 95% humidity. The PDC lines were cultured according to standard operating procedures established by the NCI PDMR (https://pdmr.cancer.gov). Table 3 of the manuscript, lists the cell lines along with the number of the three cell types plated to form the mct-spheroids and media for tumor cell growth. After thawing, all PDC lines, except 997537-175-T-J1-PDC and 415267-285-R-J2-PDC, were cultured in Matrigel-coated flasks prepared with a working solution of 1X Ham's F-12 nutrient mix, without supplementation (Thermo Fisher Scientific, cat. 11765054), 100 U/mL penicillin-streptomycin (Thermo Fisher Scientific, cat. 15140122), and 2.5% Matrigel (Corning Inc., Corning, NY, cat. 354248) for the first three passages. The two PDC lines 997537-175-T-J1-PDC and 415267-285-R-J2-PDC were cultured on uncoated flasks. The 857933-349-R-J2-PDC line was cultured in 6C/Colon 1B media containing advanced DMEM/F-12 (Thermo Fisher Scientific, cat. 12634028), 10 mM HEPES (Thermo Fisher Scientific, cat. 15630080), 1X GlutaMAX supplement (Thermo Fisher Scientific, cat. 35050061), 0.1 mg/mL primocin (InvivoGen, San Diego, CA, cat. ant-pm-2), 10% defined fetal bovine serum, heat inactivated (HyClone Laboratories Inc., Logan, UT, cat. SH30070.03HI), 50% L-WRN conditioned media (ATCC, cat. CRL-3276), 1.25 mM N-Acetyl-L-cysteine (Sigma-Aldrich, cat. A9165), 10 mM nicotinamide (Sigma-Aldrich, cat. N0636), 1X B-27 supplement (Thermo Fisher Scientific, cat. 17504044), 1X N-2 supplement (Thermo Fisher Scientific, cat. […]

[1] = second compound 0.0316 µM, first compound 0.0316 µM
[2] = second compound 0.0316 µM, first compound 0.1 µM
[3] = second compound 0.0316 µM, first compound 0.316 µM
[4] = second compound 0.0316 µM, first compound 1 µM
[5] = second compound 0.0316 µM, first compound 3.16 µM
[6] = second compound 0.0316 µM, first compound 10 µM
[7] = second compound 0.1 µM, first compound 0.0316 µM
[8] = second compound 0.1 µM, first compound 0.1 µM
[9] = second compound 0.1 µM, first compound 0.316 µM
[10] = second compound 0.1 µM, first compound 1 µM
[11] = second compound 0.1 µM, first compound 3.16 µM
[12] = second compound 0.1 µM, first compound 10 µM
[13] = second compound 0.316 µM, first compound 0.0316 µM
[14] = second compound 0.316 µM, first compound 0.1 µM
[15] = second compound 0.316 µM, first compound 0.316 µM
[16] = second compound 0.316 µM, first compound 1 µM
[17] = second compound 0.316 µM, first compound 3.16 µM
[18] = second compound 0.316 µM, first compound 10 µM
[19] = second compound 1 µM, first compound 0.0316 µM
[20] = second compound 1 µM, first compound 0.1 µM
[21] = second compound 1 µM, first compound 0.316 µM
[22] = second compound 1 µM, first compound 1 µM
[23] = second compound 1 µM, first compound 3.16 µM
[24] = second compound 1 µM, first compound 10 µM
[25] = second compound 3.16 µM, first compound 0.0316 µM
[26] = second compound 3.16 µM, first compound 0.1 µM
[27] = second compound 3.16 µM, first compound 0.316 µM
[28] = second compound 3.16 µM, first compound 1 µM
[29] = second compound 3.16 µM, first compound 3.16 µM
[30] = second compound 3.16 µM, first compound 10 µM
[31] = second compound 10 µM, first compound 0.0316 µM
[32] = second compound 10 µM, first compound 0.1 µM
[33] = second compound 10 µM, first compound 0.316 µM
[34] = second compound 10 µM, first compound 1 µM
[35] = second compound 10 µM, first compound 3.16 µM
[36] = second compound 10 µM, first compound 10 µM
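Note: spheroids exposed to drugs for 7 days.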
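Throughout, for viability, T/C: 100% = DMSO vehicle treated spheroids.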

COc1ccc([C@@H](O)c2cc(-c3ncnc4cc(N5CCOCC5)ccc34)c(F)cc2Cl)nn1 + COC1C(OC(N)=O)C(O)C(Oc2ccc3c(O)c(NC(=O)c4ccc(O)c(CC=C(C)C)c4)c(=O)oc3c2C)OC1(C)C was tested, and the IC50 (second compound 0.0316 µM) was 4.18 µM, the IC50 (second compound 0.1 µM) was 2.2 µM and the IC50 (second compound 0.316 µM) was 4.88 µM. The IC50 (second compound 1 µM) was 6.13 µM, the IC50 (second compound 3.16 µM) was 7.07 µM and the IC50 (second compound 10 µM) was 9.07 µM. It also gave a viability, T/C [1] of 101%, a viability, T/C [2] of 83% and a viability, T/C [3] of 83.5%. For the same compound, the viability, T/C [4] was 78.8%, the viability, T/C [5] was 49.4% and the viability, T/C [6] was 36.5%. It also gave a viability, T/C [7] of 107%, a viability, T/C [8] of 74.5% and a viability, T/C [9] of 93%. For the same compound, the viability, T/C [10] was 73.5%, the viability, T/C [11] was 36.7% and the viability, T/C [12] was 41.8%. The viability, T/C [13] was 93.3%, the viability, T/C [14] was 107% and the viability, T/C [15] was 85.8%. For the same compound, the viability, T/C [16] was 64%, the viability, T/C [17] was 62.3% and the viability, T/C [18] was 39.6%. For the same compound, the viability, T/C [19] was 128%, the viability, T/C [20] was 90.6% and the viability, T/C [21] was 70.6%. For the same compound, the viability, T/C [22] was 68.7%, the viability, T/C [23] was 76% and the viability, T/C [24] was 39.5%. For the same compound, the viability, T/C [25] was 91.7%, the viability, T/C [26] was 88.7% and the viability, T/C [27] was 96.1%. For the same compound, the viability, T/C [28] was 70.5%, the viability, T/C [29] was 62.6% and the viability, T/C [30] was 44.9%. The viability, T/C [31] was 103%, the viability, T/C [32] was 90.4% and the viability, T/C [33] was 71.9%. It also gave a viability, T/C [34] of 65.5%, a viability, T/C [35] of 60% and a viability, T/C [36] of 47.4%.
Compound COc1cccc2c1C(=O)c1c(O)c3c(c(O)c1C2=O)CC(O)(C(=O)CO)CC3OC1CC(N)C(O)C(C)O1 (stereo unspecified) + COC1C(OC(N)=O)C(O)C(Oc2ccc3c(O)c(NC(=O)c4ccc(O)c(CC=C(C)C)c4)c(=O)oc3c2C)OC1(C)C has an IC50 (second compound 0.0316 µM) of under 0.0316 µM, an IC50 (second compound 0.1 µM) of under 0.0316 µM and an IC50 (second compound 0.316 µM) of under 0.0316 µM. It also gave an IC50 (second compound 1 µM) of under 0.0316 µM, an IC50 (second compound 3.16 µM) of under 0.0316 µM and an IC50 (second compound 10 µM) of under 0.0316 µM. For the same compound, the viability, T/C [1] was 30%, the viability, T/C [2] was 9.63% and the viability, T/C [3] was 3%. The viability, T/C [4] was 2.19%, the viability, T/C [5] was 0.88% and the viability, T/C [6] was 1.18%. The viability, T/C [7] was 38.2%, the viability, T/C [8] was 11.2% and the viability, T/C [9] was 1.88%. The viability, T/C [10] was 1.88%, the viability, T/C [11] was 1.36% and the viability, T/C [12] was 0.62%. It also gave a viability, T/C [13] of 29.7%, a viability, T/C [14] of 8.65% and a viability, T/C [15] of 5.33%. For the same compound, the viability, T/C [16] was 1.37%, the viability, T/C [17] was 0.61% and the viability, T/C [18] was 1.78%. The viability, T/C [19] was 38.5%, the viability, T/C [20] was 21.4% and the viability, T/C [21] was 2.96%. It also gave a viability, T/C [22] of 0.39%, a viability, T/C [23] of 0.88% and a viability, T/C [24] of 0.7%. It also gave a viability, T/C [25] of 29.7%, a viability, T/C [26] of 7.94% and a viability, T/C [27] of 3.1%. The viability, T/C [28] was 0.41%, the viability, T/C [29] was 0.77% and the viability, T/C [30] was 0.92%. The viability, T/C [31] was 29.2%, the viability, T/C [32] was 9.79% and the viability, T/C [33] was 2.2%. For the same compound, the viability, T/C [34] was 0.59%, the viability, T/C [35] was 1.28% and the viability, T/C [36] was 0.88%.
With O=c1[nH]cc(F)c(=O)[nH]1 + Cc1cccc(N(C)C(=O)C2C(O)CCN2c2nc(C)cc(C(F)(F)F)c2C#N)c1 the IC50 (second compound 0.0316 µM) was 4.63 µM, the IC50 (second compound 0.1 µM) was 2.49 µM and the IC50 (second compound 0.316 µM) was 2.29 µM. The IC50 (second compound 1 µM) was over 10 µM, the IC50 (second compound 3.16 µM) was 1.46 µM and the IC50 (second compound 10 µM) was 10 µM. It also gave a viability, T/C [1] of 97.5%, a viability, T/C [2] of 91.7% and a viability, T/C [3] of 63.8%. It also gave a viability, T/C [4] of 71.5%, a viability, T/C [5] of 48.6% and a viability, T/C [6] of 45.2%. The viability, T/C [7] was 91.6%, the viability, T/C [8] was 106% and the viability, T/C [9] was 101%. The viability, T/C [10] was 69.1%, the viability, T/C [11] was 49.4% and the viability, T/C [12] was 36.3%. It also gave a viability, T/C [13] of 85.5%, a viability, T/C [14] of 78.7% and a viability, T/C [15] of 89.8%. It also gave a viability, T/C [16] of 62.4%, a viability, T/C [17] of 45.6% and a viability, T/C [18] of 44.6%. For the same compound, the viability, T/C [19] was 95%, the viability, T/C [20] was 63.2% and the viability, T/C [21] was 63%. The viability, T/C [22] was 56.8%, the viability, T/C [23] was 52.3% and the viability, T/C [24] was 47.8%. For the same compound, the viability, T/C [25] was 99.3%, the viability, T/C [26] was 95% and the viability, T/C [27] was 66%. The viability, T/C [28] was 55.2%, the viability, T/C [29] was 45.3% and the viability, T/C [30] was 47.3%. For the same compound, the viability, T/C [31] was 97.1%, the viability, T/C [32] was 103% and the viability, T/C [33] was 52.7%. The viability, T/C [34] was 58.5%, the viability, T/C [35] was 49.7% and the viability, T/C [36] was 43%.
